Reference: ChEMBL document CHEMBL5223130, “Targeting SARS-CoV-2 Main Protease for Treatment of COVID-19: Covalent Inhibitors Structure-Activity Relationship Insights and Evolution Perspectives” (J Med Chem, 2022)

Legend:
SARS-CoV-2 [1] = assay type: functional, organism-based, Vero E6; conditions: Severe acute respiratory syndrome coronavirus 2, 107, Vero C1008
SARS-CoV-2 [2] = assay type: functional, organism-based, Vero E6; conditions: Severe acute respiratory syndrome coronavirus 2, Vero C1008

O=C[C@H](C[C@@H]1CCNC1=O)NC(=O)[C@@H]1[C@H]2CCC[C@H]2CN1C(=O)COc1ccc(Cl)cc1Cl
EC50 (SARS-CoV-2 [1]): 540 nM

COc1ccc(OCC(=O)N2C[C@H]3[C@@H]([C@H]2C(=O)N[C@H](C=O)C[C@@H]2CCNC2=O)C3(C)C)cc1
EC50 (SARS-CoV-2 [1]): 860 nM

O=c1c(O)c(-c2cc(O)c(O)c(O)c2)oc2cc(O)cc(O)c12 [MYRICETIN]
EC50 (SARS-CoV-2 [2]): 8000 nM
